Results taken from patent publication US20220175729A1, “PHARMACEUTICAL USE OF CHLOROPHYLLIDE FOR CANCER THERAPY” (I-SHOU UNIVERSITY, priority 2020, published 2022).

Columns and labels:
[1] = DPPH free radical scavenging assay; type: biochemical
Experimental: The DPPH assay was used to evaluate the free radical-scavenging of chlorophyllide. Briefly, DPPH (8 mg) was dissolved in methanol (100 mL) to obtain a stock solution of 80 μg/mL. Then, 2.95 mL of the working solution was mixed with 50 μL of sample. After incubation in a dark at room temperature for 20 min, the absorbance was measured at 517 nm. The DPPH scavenging effect (%) was determined using the following formula: […]
where Ac was the absorbance of the blank control, Ai was the absorbance in the presence of the samples, and Aj was the absorbance of the samples alone. Vitamin B2 was used as a reference standard compound.

[2] = test system: MCF7 / MDA-MB-231 breast cancer cells; assay: Log2 fold change of target genes (Table 5, cell line and method not stated); type: cell-based, human
Experimental: The gene expression profiles of the MCF7 breast cancer cells treated with chlorophyllide or MDA-MB-231 breast cancer cells treated with chlorophyllide and the corresponding untreated cells were analyzed by using next generation sequencing (NGS).
(§1) Then, among the 50 candidate genes, CCR1, STIM2, ETNK1, RAP2B, and TOP2A were used as target genes in real-time polymerase chain reaction (RT-PCR).

[3] = test system: MDA-MB-231 breast cancer cells; assay: Target gene expression by RT-PCR, MDA-MB-231; type: cell-based, human; conditions: MDA-MB-231 treated with chlorophyllide
Source text: as §1

MCF7 breast cancer cells [4] = assay: Target gene expression by RT-PCR, MCF7; type: cell-based, human; conditions: MCF7 treated with chlorophyllide
Source text: as §1

MCF7 breast cancer cells [5] = conditions: FIG. 4 comparison, MTT, 0 to 200 μg/mL

With chlorophyllide the DPPH scavenging rate ([1]; 100 μg/mL) was 31.01%, the DPPH scavenging rate ([1]; 200 μg/mL) was 26.92% and the DPPH scavenging rate ([1]; 400 μg/mL) was 26.09%. The “Log2 fold change, CCR1” value ([2]; gene CCR1) was 5.954, the “Log2 fold change, ETNK1” value ([2]; gene ETNK1) was 2.181 and the “Log2 fold change, RAP2B” value ([2]; gene RAP2B) was 2.375. The “Log2 fold change, STIM2” value ([2]; gene STIM2) was 2.783, the “gene expression level by RT-PCR, CCR1” value ([3]; gene CCR1) was 10.079 and the “gene expression level by RT-PCR, ETNK1” value ([3]; gene ETNK1) was 5.954. The “gene expression level by RT-PCR, MAGI1” value ([3]; gene MAGI1) was 1.3977, the “gene expression level by RT-PCR, NLRC5” value ([3]; gene NLRC5) was 5.527 and the “gene expression level by RT-PCR, PKN1” value ([3]; gene PKN1) was 0.5819. The “gene expression level by RT-PCR, RAP2B” value ([3]; gene RAP2B) was 3.694, the “gene expression level by RT-PCR, SLC7A7” value ([3]; gene SLC7A7) was 1.159 and the “gene expression level by RT-PCR, STIM2” value ([3]; gene STIM2) was 3.5088. For the same compound, the “gene expression level by RT-PCR, TOP2A” value ([3]; gene TOP2A) was 11.02, the “gene expression level by RT-PCR, CCR1” value (MCF7 breast cancer cells [4]; gene CCR1) was 6.798 and the “gene expression level by RT-PCR, ETNK1” value (MCF7 breast cancer cells [4]; gene ETNK1) was 1.987. For the same compound, the “gene expression level by RT-PCR, MAGI1” value (MCF7 breast cancer cells [4]; gene MAGI1) was 3.126, the “gene expression level by RT-PCR, NLRC5” value (MCF7 breast cancer cells [4]; gene NLRC5) was 0.684 and the “gene expression level by RT-PCR, PKN1” value (MCF7 breast cancer cells [4]; gene PKN1) was 1.167. For the same compound, the “gene expression level by RT-PCR, RAP2B” value (MCF7 breast cancer cells [4]; gene RAP2B) was 0.5882, the “gene expression level by RT-PCR, SLC7A7” value (MCF7 breast cancer cells [4]; gene SLC7A7) was 0.3107 and the “gene expression level by RT-PCR, STIM2” value (MCF7 breast cancer cells [4]; gene STIM2) was 6.125. For the same compound, the “gene expression level by RT-PCR, TOP2A” value (MCF7 breast cancer cells [4]; gene TOP2A) was 1.574.

Compound chlorophyll has a DPPH scavenging rate ([1]; 100 μg/mL) of 52.95%, a DPPH scavenging rate ([1]; 200 μg/mL) of 65.11% and a DPPH scavenging rate ([1]; 400 μg/mL) of 88.62%. For the same compound, the “EC50 (concentration that can inhibit 50% of DPPH free radicals)” value ([1]; by extrapolation from regression analysis) was 62.14 µg/mL and the IC50 (MCF7 breast cancer cells [5]) was 197.31 µg/mL.

Cc1cc2nc3c(=O)[nH]c(=O)nc-3n(C[C@H](O)[C@H](O)[C@H](O)CO)c2cc1C [vitamin B2] gave a DPPH scavenging rate ([1]; 100 μg/mL) of 28.05%.

chlorophyllin gave a DPPH scavenging rate ([1]; 100 μg/mL) of 25.68%, a DPPH scavenging rate ([1]; 200 μg/mL) of 30.58% and a DPPH scavenging rate ([1]; 400 μg/mL) of 45.34%. The IC50 (MCF7 breast cancer cells [5]) was 218.34 µg/mL.
